For the experiment, the target named is T1, SIRT1 (Homo sapiens, UniProt Q96EB6).
T1 sequence (Q96EB6 1-747): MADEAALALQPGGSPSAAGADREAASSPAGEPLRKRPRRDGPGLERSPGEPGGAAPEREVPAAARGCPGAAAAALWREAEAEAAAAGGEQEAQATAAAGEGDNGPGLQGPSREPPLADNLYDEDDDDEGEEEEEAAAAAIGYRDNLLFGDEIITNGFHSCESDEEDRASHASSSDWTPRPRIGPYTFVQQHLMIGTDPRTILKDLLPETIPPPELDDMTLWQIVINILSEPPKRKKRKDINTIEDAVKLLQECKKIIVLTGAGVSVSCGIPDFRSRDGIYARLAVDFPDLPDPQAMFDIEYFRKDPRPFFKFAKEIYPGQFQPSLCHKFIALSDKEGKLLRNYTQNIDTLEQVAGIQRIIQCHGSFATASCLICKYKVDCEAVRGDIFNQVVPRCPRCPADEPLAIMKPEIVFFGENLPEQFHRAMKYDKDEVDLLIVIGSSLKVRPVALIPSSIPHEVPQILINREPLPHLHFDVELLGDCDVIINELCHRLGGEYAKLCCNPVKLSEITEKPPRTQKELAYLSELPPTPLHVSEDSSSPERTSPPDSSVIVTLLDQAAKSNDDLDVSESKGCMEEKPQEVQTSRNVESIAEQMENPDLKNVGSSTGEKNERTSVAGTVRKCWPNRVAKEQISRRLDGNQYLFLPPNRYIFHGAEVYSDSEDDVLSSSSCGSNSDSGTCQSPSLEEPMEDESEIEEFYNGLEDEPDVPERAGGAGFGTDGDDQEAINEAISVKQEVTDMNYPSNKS
Put plainly: SIRT1 mass spectrometry assay (screening for activation). The experiment is classed as biochemical. The following applies: for FOLD ACTIVATION MS: activation of SIRT1, mass spectrometry; for EC50: activation of SIRT1, 0.5 μM peptide substrate (SEQ ID NO: 34), 120 μM NAD+, 10 nM SIRT1, 25 min, read-out: ED50 MS ASSAY.

Here are results for 43 compounds from US8304206B2, “Mass spectrometry assays for identifying compounds that activate deacetylases” (Sirtris Pharmaceuticals, Inc., priority 2005, dated 2012).

A value given as a limit tells only on which side of the number the result lay.

For the compound `COc1cc(SC)ccc1C(=O)Nc1cccc(-c2nncn2C)c1` [compound 83], the “FOLD ACTIVATION MS” value is “B (Fold Activation<250%)”. Same read-out and setting: the same measure for `COc1ccc(C(=O)Nc2cc(-c3nc4ccccc4o3)ccn2)cc1OC` [compound 77]: “B (Fold Activation<250%)”.

Regarding `COc1cc(C(=O)Nc2ccccc2-c2cn3c(CN(C)C)csc3n2)cc(OC)c1OC` [compound 206], the “FOLD ACTIVATION MS” value is recorded as “A (Fold activation>250%)”. Same read-out and setting: then `CN(C)Cc1cc(NC(=O)c2cccc(N(C)C)c2)cc(-c2nc3ncccc3o2)c1` [compound 157], with “B (Fold Activation<250%)”; and `Cc1nc(-c2cccc(Nc3nc4ccccc4o3)c2)cs1` [compound 92], with “B (Fold Activation<250%)”; and `COc1cc(C(=O)Nc2ccccc2-n2cccn2)cc(OC)c1OC` [compound 176], with “B (Fold Activation<250%)”. Same read-out and setting: the same measure for `COc1cc(NC(=O)c2cccc(-c3nc4ncccc4o3)c2)cc(OC)c1OC` [compound 102]: “A (Fold activation>250%)”. In the case of `COc1ccc(C(=O)Nc2ccc(-c3nc4ccccc4[nH]3)cc2)c(OC)c1` [compound 262], the “FOLD ACTIVATION MS” value is “B (Fold Activation<250%)” and the EC50 is under 50 µM. Regarding `COc1cc(C(=O)Nc2ccccc2-c2cn3c(CN4CCOCC4)csc3n2)cc(OC)c1OC` [compound 210], the “FOLD ACTIVATION MS” value is on record as “B (Fold Activation<250%)”. Still for that read-out and setting: the same measure for `COc1cc(C(=O)Nc2cccc(-c3nc4ncccn4c3C)c2)cc(OC)c1OC` [compound 219]: “A (Fold activation>250%)”. For `COc1cc(C(=O)Nc2ccccc2-c2nc3ncccc3o2)cc(OC)c1OC` [compound 106], the “FOLD ACTIVATION MS” value is “B (Fold Activation<250%)” and the EC50 is under 50 µM. Consider `COc1ccc(C(=O)Nc2ccccc2-c2cn3c(CN(C)C)csc3n2)cc1OC` [compound 205], for which the “FOLD ACTIVATION MS” value is on record as “A (Fold activation>250%)”. Still for that read-out and setting: then `COc1ccc(C(=O)Nc2cccc(-c3nc4ncccc4s3)c2)c(OC)c1OC` [compound 198], with “B (Fold Activation<250%)”. As for `COc1ccc(C(=O)Nc2ccc(-c3nc4ncccc4s3)cc2)cc1OC` [compound 197], the “FOLD ACTIVATION MS” value is “B (Fold Activation<250%)” and the EC50 was under 50 µM. In the case of `COc1ccc(NC(=O)c2cccc(-c3nc4ncccc4o3)c2)c(OC)c1` [compound 100], the “FOLD ACTIVATION MS” value is “B (Fold Activation<250%)”.

`COc1ccc(C(=O)Nc2cccc(-c3nc4cccnc4s3)c2)cc1` [compound 216]: the “FOLD ACTIVATION MS” value is “B (Fold Activation<250%)” and the EC50 was under 50 µM. Regarding `COc1ccc(C(=O)Nc2ccccc2-n2cccn2)cc1OC` [compound 177], the “FOLD ACTIVATION MS” value was “B (Fold Activation<250%)”. On the same count and under the same terms, the same measure for `COc1ccc(C(=O)Nc2ccccc2-c2cn3cc(CN(C)C)sc3n2)cc1OC` [compound 178]: “A (Fold activation>250%)”. Turning to `COc1cc(C(=O)Nc2cccc(-c3nc4ccccc4[nH]3)n2)cc(OC)c1OC` [compound 259], the “FOLD ACTIVATION MS” value is “A (Fold activation>250%)” and the EC50 was under 50 µM.

On to `COc1ccc(C(=O)Nc2cccc(-c3cc4cccnc4o3)c2)cc1OC` [compound 192], for which the “FOLD ACTIVATION MS” value is on record as “B (Fold Activation<250%)”. As to `O=C(Nc1ccc2c(c1)OCO2)Nc1cccc(-c2nc3ncccc3o2)n1` [compound 71], the “FOLD ACTIVATION MS” value is listed as “B (Fold Activation<250%)”. On to `COc1cc(OC)cc(C(=O)Nc2sccc2-c2nc3ccccc3s2)c1` [compound 146], for which the “FOLD ACTIVATION MS” value is recorded as “B (Fold Activation<250%)” and the EC50 is under 50 µM. For the compound `CN(C)c1cccc(C(=O)Nc2cc(-c3nc4ncccc4o3)ccn2)c1` [compound 76], the “FOLD ACTIVATION MS” value is listed as “B (Fold Activation<250%)”.

Consider `CN(C)c1cccc(C(=O)Nc2ccccc2-c2nc3ncccc3o2)c1` [compound 97], for which the “FOLD ACTIVATION MS” value is “B (Fold Activation<250%)” and the EC50 is under 50 µM. As to `COc1ccc(C(=O)Nc2cc(C(=O)NCCN(C)C)cc(-c3nc4ncccc4o3)c2)c(OC)c1` [compound 155], the “FOLD ACTIVATION MS” value is “B (Fold Activation<250%)”. As to `COc1cc(C(=O)Nc2cc(-c3nc4ncccc4o3)ccn2)cc(OC)c1OC` [compound 75], the “FOLD ACTIVATION MS” value was “B (Fold Activation<250%)”.

Consider `O=C(Nc1cccc(-c2nc3ccncc3s2)c1)Nc1ccc2c(c1)OCO2` [compound 99], for which the “FOLD ACTIVATION MS” value is “A (Fold activation>250%)” and the EC50 is under 50 µM. On to `CN(C)c1ccc(C(=O)Nc2cccc(-c3nc4ncccc4o3)n2)cc1` [compound 70], for which the “FOLD ACTIVATION MS” value is listed as “B (Fold Activation<250%)”.

Turning to `COc1cc(C(=O)Nc2cccc(-c3cn4cccnc4n3)c2)cc(OC)c1OC` [compound 218], the “FOLD ACTIVATION MS” value is “A (Fold activation>250%)” and the EC50 was under 50 µM. Taken in the same sequence, the figures for `COc1ccc(C(=O)Nc2cccc(-c3nc4ncccc4[nH]3)c2)c(OC)c1` [compound 184] were “B (Fold Activation<250%)” and under 50 µM.

As for `COc1cc(OC)cc(C(=O)Nc2cccc(-c3nc4cccnc4s3)c2)c1` [compound 215], the “FOLD ACTIVATION MS” value is recorded as “B (Fold Activation<250%)” and the EC50 was under 50 µM. Taken in the same sequence, the figures for `COc1ccc(C(=O)Nc2ncccc2-c2nc3ccccc3[nH]2)cc1OC` [compound 276] were “B (Fold Activation<250%)” and under 50 µM. In the case of `COc1ccc(C(=O)Nc2cc(C(=O)NCCN(C)C)cc(-c3nc4ncccc4o3)c2)cc1OC` [compound 153], the “FOLD ACTIVATION MS” value was “B (Fold Activation<250%)”. With `O=C(Nc1cccc(-c2nc3ccncc3s2)c1)c1cnn(-c2ccccc2)c1C(F)(F)F` [compound 238], the “FOLD ACTIVATION MS” value is reported as “B (Fold Activation<250%)” and the EC50 is under 50 µM.

For the compound `CN(C)Cc1ccc2oc(-c3cccc(NC(=O)c4cccc(N(C)C)c4)c3)nc2n1` [compound 165], the “FOLD ACTIVATION MS” value is listed as “A (Fold activation>250%)”. Turning to `COc1cccc(C(=O)Nc2cccc(-c3nc4cccnc4s3)c2)c1OC` [compound 214], the “FOLD ACTIVATION MS” value is given as “B (Fold Activation<250%)”. As to `COc1cc(C)ccc1C(=O)Nc1cccc(-c2nc3ncccc3s2)c1` [compound 199], the “FOLD ACTIVATION MS” value is “B (Fold Activation<250%)” and the EC50 is under 50 µM.

`COc1cc(C(=O)Nc2ccccc2-c2nc3ccncc3s2)cc(OC)c1OC` [compound 163]: the “FOLD ACTIVATION MS” value is “B (Fold Activation<250%)” and the EC50 is under 50 µM. Consider `Cc1ccc2oc(-c3cccc(NC(=O)c4cccc(N(C)C)c4)c3)nc2n1` [compound 167], for which the “FOLD ACTIVATION MS” value is given as “B (Fold Activation<250%)”.

With `COc1ccc(C(=O)Nc2ccccc2-c2cn3c(CN4CCOCC4)csc3n2)cc1OC` [compound 209], the “FOLD ACTIVATION MS” value is “A (Fold activation>250%)”. In the case of `CN(C)c1cccc(C(=O)Nc2ccccc2-c2cn3ccccc3n2)c1` [compound 268], the “FOLD ACTIVATION MS” value was “B (Fold Activation<250%)” and the EC50 was under 50 µM.

On to `COc1ccc(C(=O)Nc2sccc2-c2nc3ccccc3s2)cc1OC` [compound 145], for which the “FOLD ACTIVATION MS” value is given as “B (Fold Activation<250%)” and the EC50 is under 50 µM. Regarding `O=C(Nc1cccc(-c2nc3ccncc3s2)c1)c1ccccc1Oc1ccccc1` [compound 245], the “FOLD ACTIVATION MS” value is given as “B (Fold Activation<250%)” and the EC50 was under 50 µM.
